Experimental data from ChEMBL document CHEMBL4420069, “Targeting capn9/capns2 activity as a therapeutic strategy for the treatment of myofibroblast differentiation and associated pathologies” (2018).
pIC50: −log10 of the molar value. Values belong to the compound of their own block, whether it stands above or below them. The source made the active and inactive calls. The rule behind the calls is not given here. Where a SMILES comes first, the peptide text is derived from it. The star is where a group is joined. Cbz = O=C(OCc1ccccc1)*; CH2F = FC*

Key:
[1] = species: Mus musculus; experiment: Inhibition of TGFbeta receptor in mouse NMuMG cells assessed as suppression of TGFbeta1-induced SMAD2 phosphorylation at 1 to 10 uM incubated for 24 to 72 hrs by Western blot analysis; format: cell-based
[2] = species: Mus musculus; experiment: Inhibition of TGFbeta receptor in mouse NMuMG cells assessed as suppression of TGFbeta1-induced calpain activity by measuring Filamin-A levels at 1 to 10 uM incubated for 24 to 72 hrs by Western blot analysis; format: cell-based
[3] = species: Mus musculus; experiment: Inhibition of TGFbeta receptor in mouse NMuMG cells assessed as suppression of TGFbeta1-induced EMT by measuring alpha-SMA expression at 1 to 10 uM incubated for 24 to 72 hrs by Western blot analysis; format: cell-based
[4] = species: Mus musculus; experiment: Inhibition of calcineurin in mouse NMuMG cells assessed as suppression of TGFbeta1-induced EMT by measuring alpha-SMA expression at 0.25 to 0.75 uM incubated for 72 hrs by Western blot analysis; format: cell-based
[5] = target: Transient receptor potential cation channel subfamily M member 7 (Mus musculus) (UniProt Q923J1); conditions: at 25 to 50 µM
Sequence of Transient receptor potential cation channel subfamily M member 7 (Mus musculus) (Q923J1 whole entry): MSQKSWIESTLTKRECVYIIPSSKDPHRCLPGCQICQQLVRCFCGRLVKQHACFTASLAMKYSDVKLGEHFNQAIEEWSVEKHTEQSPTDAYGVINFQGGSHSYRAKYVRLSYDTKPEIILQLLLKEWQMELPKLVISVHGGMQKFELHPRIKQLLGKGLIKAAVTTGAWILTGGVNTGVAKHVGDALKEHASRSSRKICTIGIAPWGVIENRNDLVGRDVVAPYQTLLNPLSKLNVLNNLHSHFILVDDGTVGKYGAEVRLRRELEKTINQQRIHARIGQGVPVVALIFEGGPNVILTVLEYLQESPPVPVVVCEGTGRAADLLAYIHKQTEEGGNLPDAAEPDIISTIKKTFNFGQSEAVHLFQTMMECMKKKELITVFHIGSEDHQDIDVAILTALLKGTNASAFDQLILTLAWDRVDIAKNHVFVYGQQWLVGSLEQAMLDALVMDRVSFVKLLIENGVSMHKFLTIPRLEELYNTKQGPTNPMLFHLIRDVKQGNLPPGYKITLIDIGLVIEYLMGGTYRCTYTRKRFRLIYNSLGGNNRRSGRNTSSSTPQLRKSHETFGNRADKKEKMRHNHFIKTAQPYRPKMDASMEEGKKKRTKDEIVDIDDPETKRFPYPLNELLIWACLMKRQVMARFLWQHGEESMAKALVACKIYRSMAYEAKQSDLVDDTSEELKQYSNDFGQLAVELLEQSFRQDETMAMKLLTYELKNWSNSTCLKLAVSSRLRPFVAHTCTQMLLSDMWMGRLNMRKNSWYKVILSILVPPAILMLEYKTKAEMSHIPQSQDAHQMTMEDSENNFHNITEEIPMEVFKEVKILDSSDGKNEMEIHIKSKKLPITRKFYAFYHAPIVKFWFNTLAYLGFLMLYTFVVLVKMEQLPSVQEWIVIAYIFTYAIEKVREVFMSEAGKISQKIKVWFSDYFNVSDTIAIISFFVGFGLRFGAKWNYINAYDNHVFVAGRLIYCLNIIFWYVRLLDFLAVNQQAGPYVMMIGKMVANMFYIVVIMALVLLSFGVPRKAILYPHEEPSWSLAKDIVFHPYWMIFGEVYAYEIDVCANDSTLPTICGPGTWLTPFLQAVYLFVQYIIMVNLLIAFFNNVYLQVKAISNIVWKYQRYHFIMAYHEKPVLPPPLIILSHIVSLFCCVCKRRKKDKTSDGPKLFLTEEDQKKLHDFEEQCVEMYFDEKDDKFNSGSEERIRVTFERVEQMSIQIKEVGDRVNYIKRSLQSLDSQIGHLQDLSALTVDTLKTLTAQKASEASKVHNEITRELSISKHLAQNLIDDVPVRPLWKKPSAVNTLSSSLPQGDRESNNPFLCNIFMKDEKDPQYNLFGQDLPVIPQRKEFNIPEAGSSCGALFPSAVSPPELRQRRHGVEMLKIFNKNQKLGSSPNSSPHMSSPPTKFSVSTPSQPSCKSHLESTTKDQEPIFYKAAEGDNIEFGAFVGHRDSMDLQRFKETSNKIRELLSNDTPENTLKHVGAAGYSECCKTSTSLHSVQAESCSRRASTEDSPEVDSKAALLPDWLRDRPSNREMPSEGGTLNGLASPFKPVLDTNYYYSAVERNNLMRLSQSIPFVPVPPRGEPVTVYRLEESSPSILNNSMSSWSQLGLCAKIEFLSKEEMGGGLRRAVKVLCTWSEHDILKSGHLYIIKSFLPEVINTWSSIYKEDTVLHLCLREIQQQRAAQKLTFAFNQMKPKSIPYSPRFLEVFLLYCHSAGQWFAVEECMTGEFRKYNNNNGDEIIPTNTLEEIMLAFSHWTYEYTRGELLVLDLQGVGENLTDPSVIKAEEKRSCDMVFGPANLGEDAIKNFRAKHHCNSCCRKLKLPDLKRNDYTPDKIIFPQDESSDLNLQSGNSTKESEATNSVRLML
Description: Inhibition of TRPM7 in mouse NMuMG cells assessed as suppression of TGFbeta1-induced EMT by measuring alpha-SMA expression at 25 to 50 uM incubated for 24 to 72 hrs by Western blot analysis

[6] = target: Mothers against decapentaplegic homolog 2 (Mus musculus) (UniProt Q62432); experiment: Inhibition of TGFbeta1-induced SMAD2 phosphorylation in mouse NMuMG cells at 25 to 50 uM incubated for 72 hrs; format: cell-based
Sequence of Mothers against decapentaplegic homolog 2 (Mus musculus) (Q62432 whole entry): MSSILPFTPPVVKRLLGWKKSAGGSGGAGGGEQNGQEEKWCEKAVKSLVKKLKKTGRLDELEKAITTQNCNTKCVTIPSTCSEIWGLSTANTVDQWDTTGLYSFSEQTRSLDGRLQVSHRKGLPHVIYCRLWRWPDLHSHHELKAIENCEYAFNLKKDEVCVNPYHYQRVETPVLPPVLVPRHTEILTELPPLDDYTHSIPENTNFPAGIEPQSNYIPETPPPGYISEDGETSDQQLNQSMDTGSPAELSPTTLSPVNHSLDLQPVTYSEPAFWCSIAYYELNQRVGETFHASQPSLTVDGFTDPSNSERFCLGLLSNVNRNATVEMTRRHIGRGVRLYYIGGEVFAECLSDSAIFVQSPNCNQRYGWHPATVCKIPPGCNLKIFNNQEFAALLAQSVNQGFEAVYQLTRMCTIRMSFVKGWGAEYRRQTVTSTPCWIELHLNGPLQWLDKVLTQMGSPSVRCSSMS

[7] = target: Transient receptor potential cation channel subfamily M member 7 (Homo sapiens) (UniProt Q96QT4); experiment: Inhibition of TRPM7 in NHLF assessed as inhibition of TGFB1-induced FMT by measuring alpha-SMA expression at 25 to 50 uM incubated for 24 hrs by Western blot analysis
[8] = target: Transient receptor potential cation channel subfamily M member 7 (Mus musculus) (UniProt Q923J1); conditions: at 25 to 50 µM; remark: listed apart in the source
Description: Inhibition of TRPM7 in mouse NMuMG cells assessed as suppression of TGFbeta1-induced calpain activity by measuring Filamin-A levels at 25 to 50 uM incubated for 24 to 72 hrs by Western blot analysis

[9] = target: T1, Calpain-9 (Homo sapiens, UniProt O14815); experiment: Inhibition of human recombinant mini-CAPN9 pre-incubated for 10 mins before calpain FRET peptide 5-FAM /QXL520 substrate addition by FLIPR assay
T1 sequence (O14815 whole entry): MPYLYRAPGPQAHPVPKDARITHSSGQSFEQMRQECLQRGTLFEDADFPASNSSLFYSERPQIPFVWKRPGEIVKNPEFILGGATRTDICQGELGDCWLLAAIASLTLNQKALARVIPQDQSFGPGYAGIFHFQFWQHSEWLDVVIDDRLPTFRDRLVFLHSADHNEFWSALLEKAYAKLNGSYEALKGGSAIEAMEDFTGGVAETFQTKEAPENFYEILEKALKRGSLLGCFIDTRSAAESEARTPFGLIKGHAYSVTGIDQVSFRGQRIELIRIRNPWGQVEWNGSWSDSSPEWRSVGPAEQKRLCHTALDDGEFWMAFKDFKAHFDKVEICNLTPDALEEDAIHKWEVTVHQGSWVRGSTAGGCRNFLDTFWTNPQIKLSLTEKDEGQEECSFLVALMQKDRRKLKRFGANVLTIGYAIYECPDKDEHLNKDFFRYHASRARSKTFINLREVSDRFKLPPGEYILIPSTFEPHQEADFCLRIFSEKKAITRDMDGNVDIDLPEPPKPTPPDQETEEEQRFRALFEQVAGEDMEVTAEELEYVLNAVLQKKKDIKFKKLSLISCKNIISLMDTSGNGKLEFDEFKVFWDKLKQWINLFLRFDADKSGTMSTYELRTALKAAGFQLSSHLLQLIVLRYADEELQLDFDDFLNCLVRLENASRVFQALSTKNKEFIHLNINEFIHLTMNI

[10] = target: Mothers against decapentaplegic homolog 2 (Mus musculus) (UniProt Q62432); conditions: at 25 to 50 µM
Description: Inhibition of TGFbeta1-induced SMAD2 phosphorylation in mouse NMuMG cells at 25 to 50 uM incubated for 24 to 72 hrs

[11] = tested on: MDCK; experiment: Inhibition of calpain in MDCK cells assessed as suppression of TGFbeta1-induced EMT by measuring alpha-SMA expression at 10 to 20 uM incubated for 24 to 72 hrs by Western blot analysis; format: cell-based; conditions: Canis lupus familiaris
[12] = species: Mus musculus; experiment: Inhibition of calpain in mouse NMuMG cells assessed as suppression of TGFbeta1-induced E-cadherin expression at 10 to 20 uM incubated for 48 to 72 hrs after 72 hrs pre-incubation with TGFbeta with continued presence of TGFbeta by immunofluorescence microscopy; format: cell-based
[13] = target: Mothers against decapentaplegic homolog 2 (Mus musculus) (UniProt Q62432); experiment: Inhibition of TGFbeta1-induced SMAD2 phosphorylation in mouse NMuMG cells at 10 to 20 uM incubated for 24 to 72 hrs; format: cell-based
[14] = species: Mus musculus; experiment: Inhibition of calpain in mouse NMuMG cells assessed as suppression of TGFbeta1-induced EMT by measuring MMP2 expression at 10 to 20 uM incubated for 48 hrs; format: cell-based
[15] = target: Calpain1/2 (Homo sapiens) (UniProt P17655+P07384); conditions: 10 to 20 uM
Sequence of Calpain1/2 (Homo sapiens) (P07384 whole entry, looked up): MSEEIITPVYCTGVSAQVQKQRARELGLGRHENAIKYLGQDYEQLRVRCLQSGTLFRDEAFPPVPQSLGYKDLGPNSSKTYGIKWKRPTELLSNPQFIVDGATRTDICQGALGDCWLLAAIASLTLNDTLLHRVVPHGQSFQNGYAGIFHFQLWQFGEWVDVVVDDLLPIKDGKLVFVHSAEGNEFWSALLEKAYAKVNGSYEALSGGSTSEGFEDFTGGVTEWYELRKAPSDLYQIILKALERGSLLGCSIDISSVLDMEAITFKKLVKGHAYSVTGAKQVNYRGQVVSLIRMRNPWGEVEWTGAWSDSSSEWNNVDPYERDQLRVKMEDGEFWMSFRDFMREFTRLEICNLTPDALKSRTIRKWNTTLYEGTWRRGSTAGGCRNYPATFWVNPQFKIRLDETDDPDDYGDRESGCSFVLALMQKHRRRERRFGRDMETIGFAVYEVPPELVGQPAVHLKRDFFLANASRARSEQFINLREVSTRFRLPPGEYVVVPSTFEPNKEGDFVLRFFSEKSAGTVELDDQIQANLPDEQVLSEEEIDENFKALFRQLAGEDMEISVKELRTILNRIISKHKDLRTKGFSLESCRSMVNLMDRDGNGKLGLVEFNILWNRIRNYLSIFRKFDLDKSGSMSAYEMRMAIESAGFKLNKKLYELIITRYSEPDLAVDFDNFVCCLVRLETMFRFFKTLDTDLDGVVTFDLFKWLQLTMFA
Sequence of Calpain1/2 (Homo sapiens) (P17655 whole entry, looked up): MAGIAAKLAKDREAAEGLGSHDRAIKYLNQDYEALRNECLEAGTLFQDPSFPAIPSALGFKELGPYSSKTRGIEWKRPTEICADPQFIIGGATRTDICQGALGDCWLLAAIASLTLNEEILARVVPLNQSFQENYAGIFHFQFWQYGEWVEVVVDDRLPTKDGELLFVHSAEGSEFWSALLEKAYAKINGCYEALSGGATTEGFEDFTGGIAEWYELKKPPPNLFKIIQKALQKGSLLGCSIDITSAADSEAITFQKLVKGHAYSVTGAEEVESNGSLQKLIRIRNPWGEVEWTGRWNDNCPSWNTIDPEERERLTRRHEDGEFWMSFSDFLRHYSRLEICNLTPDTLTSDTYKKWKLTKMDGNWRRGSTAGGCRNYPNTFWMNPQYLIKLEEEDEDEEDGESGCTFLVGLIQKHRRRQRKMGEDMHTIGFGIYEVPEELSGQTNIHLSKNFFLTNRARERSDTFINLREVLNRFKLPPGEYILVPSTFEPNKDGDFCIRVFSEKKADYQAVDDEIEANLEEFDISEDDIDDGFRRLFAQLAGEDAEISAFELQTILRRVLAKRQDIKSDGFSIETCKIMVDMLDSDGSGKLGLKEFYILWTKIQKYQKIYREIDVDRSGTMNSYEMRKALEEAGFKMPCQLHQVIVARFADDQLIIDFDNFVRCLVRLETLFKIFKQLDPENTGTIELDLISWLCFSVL
Description: Inhibition of calpain in NHLF assessed as inhibition of TGFB1-induced FMT by measuring alpha-SMA expression at 10 to 20 uM incubated for 24 hrs by Western blot analysis

[16] = species: Mus musculus; experiment: Inhibition of calpain in mouse NMuMG cells assessed as suppression of TGFbeta1-induced EMT by measuring vimentin expression at 10 to 20 uM incubated for 48 hrs; format: cell-based
[17] = species: Mus musculus; experiment: Inhibition of calpain in mouse NMuMG cells assessed as suppression of TGFbeta1-induced actin cytoskeleton reorganization at 10 to 20 uM; format: cell-based
[18] = species: Mus musculus; experiment: Inhibition of calpain in mouse NMuMG cells assessed as suppression of TGFbeta1-induced EMT by measuring MMP9 expression at 10 to 20 uM incubated for 48 hrs; format: cell-based
[19] = species: Mus musculus; experiment: Inhibition of calpain in mouse NMuMG cells assessed as suppression of TGFbeta1-induced EMT by measuring collagen 1A1 expression at 10 to 20 uM incubated for 48 hrs; format: cell-based
[20] = species: Mus musculus; experiment: Inhibition of calpain in mouse NMuMG cells assessed as suppression of TGFbeta1-induced E-cadherin expression at 10 to 20 uM by immunofluorescence microscopy; format: cell-based
[21] = species: Mus musculus; experiment: Inhibition of calpain in mouse NMuMG cells assessed as suppression of TGFbeta1-induced actin cytoskeleton reorganization at 10 to 20 uM incubated for 48 to 72 hrs after 72 hrs pre-incubation with TGFbeta with continued presence of TGFbeta; format: cell-based
[22] = species: Mus musculus; experiment: Inhibition of calpain in mouse NMuMG cells assessed as suppression of TGFbeta1-induced EMT by measuring alpha-SMA expression at 10 to 20 uM incubated for 24 to 72 hrs by Western blot analysis; format: cell-based
[23] = species: Mus musculus; experiment: Inhibition of calpain in mouse NMuMG cells assessed as suppression of TGFbeta1-induced EMT by measuring alpha-SMA expression at 10 to 20 uM incubated for 48 to 72 hrs after 72 hrs pre-incubation with TGFbeta with continued presence of TGFbeta by Western blot analysis; format: cell-based
[24] = species: Mus musculus; experiment: Inhibition of calpain in mouse NMuMG cells assessed as suppression of TGFbeta1-induced calpain activity by measuring Filamin-A levels at 25 to 50 uM incubated for 24 to 72 hrs by Western blot analysis; format: cell-based
[25] = species: Mus musculus; experiment: Inhibition of calpain in mouse NMuMG cells assessed as suppression of TGFbeta1-induced EMT by measuring alpha-SMA expression at 25 to 50 uM incubated for 24 to 72 hrs by Western blot analysis; format: cell-based

SMILES: NC(=O)c1ccc(-c2nc(-c3ccccn3)c(-c3ccc4c(c3)OCO4)[nH]2)cc1
- inhibition [1]: Active
- inhibition [2]: Active
- inhibition [3]: Active

SMILES: C=CC[C@@H]1/C=C(\C)C[C@H](C)C[C@H](OC)[C@H]2O[C@@](O)(C(=O)C(=O)N3CCCC[C@H]3C(=O)O[C@H](/C(C)=C/[C@@H]3CC[C@@H](O)[C@H](OC)C3)[C@H](C)[C@@H](O)CC1=O)[C@H](C)C[C@@H]2OC
- inhibition [4]: Active

SMILES: c1ccc2c(c1)CCC[C@H]2Nc1nc2ccccc2[nH]1
- inhibition [5]: Active
- inhibition [6]: inactive
- inhibition [7]: Active
- inhibition [8]: Active

SMILES: NCCOB(c1ccccc1)c1ccccc1
- inhibition [5]: Active
- inhibition [10]: inactive
- inhibition [8]: Active

SMILES: CCCC[C@@H](C=O)NC(=O)[C@H](CC(C)C)NC(=O)OCc1ccccc1
- inhibition [24]: Active
- inhibition [10]: inactive
- inhibition [25]: Active

The next lines start with results.

- pIC50 [9]: 4.00
SMILES: COC(=O)C[C@H](NC(=O)[C@H](C)NC(=O)[C@@H](NC(=O)OCc1ccccc1)C(C)C)C(=O)CF (Cbz-Val-Ala-Asp(OMe)-CH2F)

- pIC50 [9]: 4.00
SMILES: C[C@H](NC(=O)[C@H](Cc1ccccc1)NC(=O)OCc1ccccc1)C(=O)CF

- inhibition [13]: inactive
- inhibition [15]: Active
SMILES: CC(C)[C@H](NC(=O)OCc1ccccc1)C(=O)N[C@H](C=O)Cc1ccccc1 (Cbz-Val-Phe-aldehyde)
- inhibition [11]: Active
- inhibition [12]: Active
- inhibition [14]: Active
- inhibition [16]: Active
- inhibition [17]: Active
- inhibition [18]: Active
- inhibition [19]: Active
- inhibition [20]: Active
- inhibition [21]: Active
- inhibition [22]: Active
- inhibition [23]: Active
